Assay results taken from ChEMBL document CHEMBL2406934, “Orally available and efficacious α4β1/α4β7 integrin inhibitors” (Bioorg Med Chem Lett, 2013).
Active and inactive are the calls of the source. The rule behind the calls is not given here.

Experiments:
[1] = AUC (0 to infinity) in po dosed rat; assay type: ADME, organism-based; parameters: route oral, time infinity; conditions: plasma
Integrin alpha-4/beta-1 [2] = target: T1, Integrin alpha-4/beta-1 (Homo sapiens, UniProt P05556+P13612); assay: Inhibition of alpha4beta1 integrin-mediated human jurkat cell adhesion to fibronectin in presence of human serum albumin; assay type: protein-complex assay
T1 sequence (P05556 whole entry): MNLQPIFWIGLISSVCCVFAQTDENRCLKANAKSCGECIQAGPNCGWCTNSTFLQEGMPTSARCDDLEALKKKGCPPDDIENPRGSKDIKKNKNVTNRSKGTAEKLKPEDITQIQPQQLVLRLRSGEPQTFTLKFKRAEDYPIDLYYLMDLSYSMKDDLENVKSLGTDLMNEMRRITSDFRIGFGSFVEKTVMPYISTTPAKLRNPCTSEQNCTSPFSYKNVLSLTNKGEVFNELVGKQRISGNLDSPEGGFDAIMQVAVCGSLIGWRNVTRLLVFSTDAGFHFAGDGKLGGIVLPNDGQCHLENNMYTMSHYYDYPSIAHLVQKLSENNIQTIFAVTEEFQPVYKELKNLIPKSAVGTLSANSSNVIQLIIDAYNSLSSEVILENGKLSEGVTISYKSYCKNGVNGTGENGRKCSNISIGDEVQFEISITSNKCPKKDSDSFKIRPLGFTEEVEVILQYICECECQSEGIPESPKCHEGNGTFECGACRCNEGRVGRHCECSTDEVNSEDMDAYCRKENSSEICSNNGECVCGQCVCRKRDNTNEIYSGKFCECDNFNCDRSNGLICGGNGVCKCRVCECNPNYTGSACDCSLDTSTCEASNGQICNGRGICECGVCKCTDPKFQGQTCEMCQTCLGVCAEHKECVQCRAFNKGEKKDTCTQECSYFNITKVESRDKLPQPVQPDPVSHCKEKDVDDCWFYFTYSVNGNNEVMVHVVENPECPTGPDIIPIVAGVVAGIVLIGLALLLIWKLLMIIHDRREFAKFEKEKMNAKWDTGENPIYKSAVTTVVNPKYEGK
T1 sequence (P13612 whole entry): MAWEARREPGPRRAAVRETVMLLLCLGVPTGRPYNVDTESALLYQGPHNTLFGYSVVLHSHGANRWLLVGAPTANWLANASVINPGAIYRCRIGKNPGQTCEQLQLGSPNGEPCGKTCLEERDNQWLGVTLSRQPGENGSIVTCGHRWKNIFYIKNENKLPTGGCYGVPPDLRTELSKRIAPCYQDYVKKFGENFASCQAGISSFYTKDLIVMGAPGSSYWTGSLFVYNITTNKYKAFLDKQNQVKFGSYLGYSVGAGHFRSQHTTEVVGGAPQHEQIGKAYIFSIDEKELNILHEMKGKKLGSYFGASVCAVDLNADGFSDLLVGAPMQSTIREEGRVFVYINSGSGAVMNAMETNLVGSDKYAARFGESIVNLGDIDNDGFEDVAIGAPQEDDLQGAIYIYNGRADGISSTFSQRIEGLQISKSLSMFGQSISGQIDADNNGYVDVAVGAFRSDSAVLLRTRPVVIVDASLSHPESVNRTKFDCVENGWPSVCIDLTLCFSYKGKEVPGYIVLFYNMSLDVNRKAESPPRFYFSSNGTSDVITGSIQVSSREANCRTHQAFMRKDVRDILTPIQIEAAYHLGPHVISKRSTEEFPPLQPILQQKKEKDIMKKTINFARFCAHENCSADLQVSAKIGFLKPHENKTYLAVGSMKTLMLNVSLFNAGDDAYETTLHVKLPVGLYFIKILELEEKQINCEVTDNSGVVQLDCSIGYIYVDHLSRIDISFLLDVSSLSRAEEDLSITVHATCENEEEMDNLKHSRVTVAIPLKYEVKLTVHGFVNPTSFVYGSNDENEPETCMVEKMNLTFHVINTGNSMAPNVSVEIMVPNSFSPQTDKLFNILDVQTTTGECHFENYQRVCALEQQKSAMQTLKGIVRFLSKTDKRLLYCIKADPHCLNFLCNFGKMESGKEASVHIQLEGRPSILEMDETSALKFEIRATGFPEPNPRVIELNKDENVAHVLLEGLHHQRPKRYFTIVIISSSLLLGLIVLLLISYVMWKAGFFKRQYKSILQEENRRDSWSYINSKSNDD

[3] = Cmax in po dosed rat; assay type: ADME, organism-based; parameters: route oral; conditions: in vivo
Integrin alpha-4/beta-1 [4] = target: T1, Integrin alpha-4/beta-1; assay: Inhibition of alpha4beta1 integrin-mediated human jurkat cell adhesion to fibronectin in absence of human serum albumin; assay type: protein-complex assay
[5] = Oral bioavailability in rat; assay type: ADME, organism-based; conditions: in vivo
[6] = Apparent volume of distribution in iv dosed rat; assay type: ADME, organism-based; conditions: in vivo, read-out: Vz
[7] = AUC (0 to infinity) in rat at 10 mg/kg, po; assay type: ADME, organism-based; parameters: time infinity, dose 10 mg/kg, route oral; conditions: plasma
[8] = Cmax in rat at 10 mg/kg, po; assay type: ADME, organism-based; parameters: dose 10 mg/kg, route oral; conditions: in vivo
Liver microsomes [9] = assay: Drug metabolism in human liver microsomes assessed as (S)-2-(2-(ethylamino)-5-(N-isopropylmethylsulfonamido)pyrimidin-4-ylamino)-3-(4-(pyrrolidine-1-carbonyloxy)phenyl)propanoic acid synthesis; assay type: ADME, Microsome
[10] = Cmax in rat at 30 mg/kg, po; assay type: ADME, organism-based; parameters: dose 30 mg/kg, route oral; conditions: in vivo
[11] = AUC (0 to infinity) in rat at 1 mg/kg, po; assay type: ADME, organism-based; parameters: time infinity, dose 1 mg/kg, route oral; conditions: plasma
[12] = Volume of distribution at steady state in iv dosed rat; assay type: ADME, organism-based; conditions: in vivo, read-out: Vdss
[13] = Plasma concentration in rat at 30 mg/kg, po after 24 hrs; assay type: ADME, organism-based; parameters: dose 30 mg/kg, route oral
[14] = Cmax in rat at 300 mg/kg, po; assay type: ADME, organism-based; parameters: dose 300 mg/kg, route oral; conditions: in vivo
[15] = Plasma concentration in rat at 30 mg/kg, po administered for 10 days measured 24 hrs post last dose; assay type: ADME, organism-based; parameters: dose 30 mg/kg, route oral
[16] = Half life in iv dosed rat; assay type: ADME, organism-based; conditions: in vivo
[17] = Cmax in rat at 3 mg/kg, po; assay type: ADME, organism-based; parameters: dose 3 mg/kg, route oral; conditions: in vivo
[18] = AUC (0 to infinity) in rat at 300 mg/kg, po; assay type: ADME, organism-based; parameters: time infinity, dose 300 mg/kg, route oral; conditions: plasma
[19] = Plasma concentration in rat at 10 mg/kg, po administered for 10 days measured 24 hrs post last dose; assay type: ADME, organism-based; parameters: dose 10 mg/kg, route oral
[20] = AUC (0 to infinity) in rat at 100 mg/kg, po; assay type: ADME, organism-based; parameters: time infinity, dose 100 mg/kg, route oral; conditions: plasma
[21] = Plasma concentration in rat at 100 mg/kg, po administered for 10 days measured 24 hrs post last dose; assay type: ADME, organism-based; parameters: dose 100 mg/kg, route oral
[22] = AUC (0 to infinity) in rat at 1000 mg/kg, po; assay type: ADME, organism-based; parameters: time infinity, dose 1000 mg/kg, route oral; conditions: plasma
[23] = Cmax in rat at 1000 mg/kg, po; assay type: ADME, organism-based; parameters: dose 1000 mg/kg, route oral; conditions: in vivo
[24] = Plasma concentration in HLA-B27 rat at 100 mg/kg, po bid administered for 11 days measured 12 hrs post last dose; assay type: ADME, organism-based; parameters: dose 100 mg/kg, route oral
[25] = Clearance in iv dosed rat; assay type: ADME, organism-based; conditions: in vivo
[26] = AUC (0 to infinity) in rat at 30 mg/kg, po; assay type: ADME, organism-based; parameters: time infinity, dose 30 mg/kg, route oral; conditions: plasma
[27] = Cmax in rat at 100 mg/kg, po; assay type: ADME, organism-based; parameters: dose 100 mg/kg, route oral; conditions: in vivo
Rattus norvegicus = assay: Toxicity in rat assessed as weight gain at 1 to 1000 mg/kg, po after 10 days; assay type: organism-based; parameters: dose 1-1000 mg/kg, route oral; conditions: in vivo, 240 h
[28] = Plasma concentration in rat at 1000 mg/kg, po administered for 10 days measured 24 hrs post last dose; assay type: ADME, organism-based; parameters: dose 1000 mg/kg, route oral
[29] = AUC (0 to infinity) in rat at 3 mg/kg, po; assay type: ADME, organism-based; parameters: time infinity, dose 3 mg/kg, route oral; conditions: plasma
Cavia porcellus = assay: Reduction on allergenic encephalomyelitis guinea pig EAE model at 300 mg/kg, po bid; assay type: functional, organism-based; parameters: dose 300 mg/kg
[30] = Plasma concentration in rat at 100 mg/kg, po after 24 hrs; assay type: ADME, organism-based; parameters: dose 100 mg/kg, route oral
[31] = Plasma concentration in rat at 300 mg/kg, po after 24 hrs; assay type: ADME, organism-based; parameters: dose 300 mg/kg, route oral
[32] = Plasma concentration in rat at 10 mg/kg, po after 24 hrs; assay type: ADME, organism-based; parameters: dose 10 mg/kg, route oral
Liver microsomes [33] = assay: Drug metabolism in rat liver microsomes assessed as (S)-2-(2-(ethylamino)-5-(N-isopropylmethylsulfonamido)pyrimidin-4-ylamino)-3-(4-(pyrrolidine-1-carbonyloxy)phenyl)propanoic acid synthesis; assay type: ADME, Microsome
[34] = Plasma concentration in rat at 3 mg/kg, po after 24 hrs; assay type: ADME, organism-based; parameters: dose 3 mg/kg, route oral
[35] = Plasma concentration in rat at 300 mg/kg, po administered for 10 days measured 24 hrs post last dose; assay type: ADME, organism-based; parameters: dose 300 mg/kg, route oral
[36] = Plasma concentration in rat at 1 mg/kg, po after 24 hrs; assay type: ADME, organism-based; parameters: dose 1 mg/kg, route oral
[37] = Cmax in rat at 1 mg/kg, po; assay type: ADME, organism-based; parameters: dose 1 mg/kg, route oral; conditions: in vivo
[38] = Plasma concentration in rat at 1000 mg/kg, po after 24 hrs; assay type: ADME, organism-based; parameters: dose 1000 mg/kg, route oral

CCNc1ncc(N(C(C)C)S(C)(=O)=O)c(N[C@@H](Cc2ccc(OC(=O)N3CCCC3)cc2)C(=O)O)n1
AUC(0-inf) [1]: 6.8 µg·h/mL | IC50 (Integrin alpha-4/beta-1 [2]): 4820 nM | Cmax [3]: 1400 ng/mL | IC50 (Integrin alpha-4/beta-1 [4]): 23.3 nM

CCN(CC)c1ncc(N(C(C)C)S(C)(=O)=O)c(N[C@@H](Cc2ccc(OC(=O)N3CCCC3)cc2)C(=O)O)n1
bioavailability [5]: 17% | Vd [6]: 0.108 L/kg | AUC(0-inf) [7]: 76 µg·h/mL | Cmax [8]: 3600 ng/mL | Drug metabolism (Liver microsomes [9]): Active | Cmax [10]: 17400 ng/mL | AUC(0-inf) [1]: 221 µg·h/mL | AUC(0-inf) [11]: 5.9 µg·h/mL | Vd [12]: 0.068 L/kg | concentration at 24 h [13]: 4250 ng/mL | Cmax [14]: 153000 ng/mL | concentration at 24 h [15]: 13000 ng/mL | half-life [16]: 7.3 h | Cmax [17]: 1100 ng/mL | AUC(0-inf) [18]: 2980 µg·h/mL | concentration at 24 h [19]: 3380 ng/mL | AUC(0-inf) [20]: 1260 µg·h/mL | Cmax [3]: 16500 ng/mL | concentration at 24 h [21]: 28500 ng/mL | AUC(0-inf) [22]: 4480 µg·h/mL | Cmax [23]: 214000 ng/mL | concentration at 12 h [24]: 2500 ng/mL | clearance [25]: 0.172 mL/min/kg | AUC(0-inf) [26]: 275 µg·h/mL | Cmax [27]: 105000 ng/mL | Activity (Rattus norvegicus): Non-toxic | concentration at 24 h [28]: 100000 ng/mL | AUC(0-inf) [29]: 24.2 µg·h/mL | Activity (Cavia porcellus): inactive | concentration at 24 h [30]: 13600 ng/mL | concentration at 24 h [31]: 46200 ng/mL | concentration at 24 h [32]: 1010 ng/mL | Drug metabolism (Liver microsomes [33]): Active | concentration at 24 h [34]: 358 ng/mL | concentration at 24 h [35]: 43100 ng/mL | concentration at 24 h [36]: 110 ng/mL | Cmax [37]: 230 ng/mL | concentration at 24 h [38]: 71400 ng/mL
